From US20050272649A1, “Conjoint administration of morphogens and ACE inhibitors in treatment of chronic renal failure” (priority 2002, published 2005)
Entries after “also recorded” stand apart in the source; their conditions may differ. Where two headings read alike, the source gives them in different places.

Assays:
[1] = test system: streptozotocin diabetic Sprague-Dawley rats; type: in vivo; conditions: for GFR (ml/min/100 g bw): inulin clearance at 32 weeks; for mesangial matrix accumulation (in words): PAS / Trichrome histology at 32 weeks; for kidney weight / renal hypertrophy (in words): treatment weeks 16-32, versus vehicle-treated diabetic rats
Description: A long-term streptozotocin model of diabetic nephropathy was used to test and compare the therapeutic actions of BMP-7 with those of Enalapril. The study design was a treatment protocol beginning at 16 weeks when glomerular hypertrophy and proteinuria were established. The effects of therapy with BMP-7 (10, 30, or 100 μg/kg iv, biw) were compared to a maximal dose of Enalapril (20 mg/kg) and to a vehicle control. […] The GFR of 32 week diabetic Enalapril treated rats was 0.58±0.06 (not significant compared to vehicle treated and sham injected rats 0.55±0.02).
Animals: Female Sprague-Dawley rats 10 weeks of age weighing 190-220 g were used. Animals were allowed free access to standard rat chow and to tap water. Diabetes mellitus was induced by a single tail-vein injection of Streptozotocin (STZ 62 mg/kg of body weight, Sigma chemical company, St. Louis, Mo.) dissolved in normal saline at day 0. The diabetic state was confirmed 72 hours later by the determination of blood glucose concentration>300 mg/dl. From day 3, all the diabetic rats received daily subcutaneous injections of 1.0-7.0 u human recombinant long-acting insulin injection (Eli Lilly & Co., Indianapolis, Ind.) as required to maintain the blood glucose concentration between 300-500 mg/dl. Tail blood glucose levels were measured twice a week with an Accu—Chek™ Advantage meter (Roche Diagnostic Corporation, Indianapolis, Ind.). Body weights were taken once a week. Food and water intake were monitored daily.
Renal hypertrophy was well developed at 16 weeks prior to treatment with vehicle, BMP-7, or enalapril. […], animals were divided into 8 groups. Group 1 were 16 weeks of DM. Group 2 were 16 weeks normal controls. Group 3 DM animals were treated with tail-vein injection of vehicle twice a week for 16 weeks. Group 4, Group 5, and Group 6 were DM animals treated with tail-vein injections of BMP-7 100, 30, and 10 μg/kg body weight respectively twice a week for 16 weeks. Group 7 were treated with Enalapril 20 mg/kg through the drinking water for 16 weeks. […] Group 1 and Group 2 animals were sacrificed at 16 weeks. The others were sacrificed at 32 weeks. All treatments began at 16 weeks and continued through 32 weeks. Glomerular filtration rate (GFR), urine albumin excretion, kidney weight, glomerular area, mesangial matrix area, interstitial volume, monocyte and macrophage infiltration, thickness of glomerular basement membrane (GBM) and glomerulosclerosis were measured.
Renal Function: In all animals, glomerular filtration rate (GFR) was measured as the clearance of inulin. Rats were anesthetized with a Ketamine/Xylozine cocktail. A catheter was inserted into the femoral vein under a dissecting microscope for infusion. Another catheter was placed into the femoral artery for collecting blood samples. Urine was collected by bladder cannulation.
After the completion of surgery, a bolus of 2 ml/kg of 3% inulin (Cypros Pharmaceutical Corp, W. Carlsbad, Calif.) and 0.2% p-aminohippurate (PAH) in normal saline was infused as a priming load, followed by a sustaining infusion of the same solution at the rate of 8 ml/h·kg. Urine collection was initiated for three 20-minute collection periods after an hour of equilibration. An arterial blood sample was obtained during each clearance period. Plasma and urine were analyzed for inulin.
Urine volume was measured and urinary protein concentration was determined with a Bio-Rad protein assay.
Preparation of Kidneys: After the clearance studies, the rats were euthanized. Both kidneys were rapidly removed and placed in ice-cold phosphate buffered saline (PBS). Kidneys were weighed and then sliced on a cold glass plate. Two 2 mm coronal sections were immersed in Histochoice and in 10% buffered formalin. Kidney sections were embedded in paraffin and cut at 3 μm and stained with hematoxylin and eosin, Gomori's Trichrome and periodic acid Schiff (PAS).
Renal Morphology: The morphometric analysis was done in a blind manner. […]

[2] = test system: rat remnant kidney model (5/6 NPX); assay: rat partial (5/6) nephrectomy chronic renal failure injury model; type: in vivo; conditions: enalapril 100 mg/L drinking water with or without OP-1; up to 26 weeks after nephrectomy
Source text: A rat partial (5/6) nephrectomy or rat remnant kidney model (RRKM) model was employed essentially as described (Vukicevic, et al. (1987) J. Bone Mineral Res. 2: 533, the entire content of which is incorporated herein by reference). Male Munich-Wistar rats (2-3 months old, weighing about 200-250 g) were subjected to renal mass ablation. Specifically, the right kidney is excised in conjunction with selective ligation of the left renal artery branches such that one third of the kidney remains perfused (5/6 NPX, see FIG. 12). Immediately following surgery, plasma creatinine and BUN levels rise dramatically due to the loss of renal mass and function. Over the next several weeks of this “acute” failure phase, plasma creatinine and BUN levels of surviving animals decline somewhat toward normal values but remain elevated. Renal function then appears to remain relatively constant or stable for a period of variable duration. After this point, the animals enter a period of chronic renal failure in which there is an essentially linear decline in renal function ending in death. For these reasons, animals are given 4 weeks of recovery prior to initiation of treatments.
Four weeks after nephrectomy, rats were divided into four treatment groups (see Table III), namely OP-1 (150 μg/kg body weight, 3×/week, by i.p. injection), Vehicle (20 mM arginine/150 mM NaCl, 0.1% Tween-80, pH 9.0, 1 ml/kg body weight, 3×/week, by i.p. injection), enalapril (100 mg/L in drinking water, 8-16 mg/kg body weight), and OP-1 with enalapril. For the first two groups (OP-1 and Vehicle), animals were sacrificed 14 weeks after nephrectomy. For the last two groups (enalapril, and OP-1 with enalapril), animals were sacrificed 26 weeks after nephrectomy. As surgical controls, rats were subjected to a “sham” operation in which the kidneys were decapsulated but no renal tissue was removed. Sham-treated animals were sacrificed 26 weeks after operation. None of the rats died in any group during this study. Systolic blood pressure, urine protein and/or glomerulosclerosis were monitored at intervals between 4 and 26 weeks post surgery.

[3] = Enalapril 20 mg/kg in drinking water (100 mg/l)
[4] = Enalapril 20 mg/kg in drinking water (100 mg/l), weeks 16-32
[5] = Enalapril 20 mg/kg in drinking water (100 mg/l), weeks 16-32, at 32 weeks
[6] = treatment weeks 16-32, listed as Enalapril

CCOC(=O)[C@H](CCc1ccccc1)N[C@@H](C)C(=O)N1CCC[C@H]1C(=O)O [enalapril, N-(1-ethoxycarbonyl-3-phenylpropyl)-L-ananyl-L-proline, reference compound]
renal BMP-7 expression (in situ hybridization) ([1]; 32 weeks): restored BMP-7 expression at high levels in the collecting duct; also recorded: restored BMP-7 expression in its normal pattern at high levels; also recorded: restored the normal distribution of BMP-7 expression
renal Wnt4 expression (in situ hybridization) ([1]; 32 weeks): without affecting Wnt4 expression; also recorded: do not affect Wnt4 expression; also recorded: had no effect on Wnt4 expression
monocyte/macrophage tubulointerstitial infiltration ([1]; ED-1 positive cells, 32 weeks): decreased the tubulointerstitial infiltration
Cause-Mortality hypoglycemia [1, 3]: 1/10
Cause-Mortality ketoacidosis [1, 3]: 1/10
Cause-Mortality unknown [1, 3]: 1/10
Body Weight (g) End [1, 4]: 294.9 ± 4.4 g
Body Weight (g) Weight Gain [1, 4]: 78.7 ± 5.9 g
Protein Ex (mg/day), urine protein excretion [1, 5]: 33.59 ± 7.58 mg/day
kidney weight [1, 5]: 1.09 ± 0.04 g
kidney weight ([1]; Enalapril 20 mg/kg in drinking water (100 mg/l), weeks 16-32, at 32 weeks, listed as E): 1.09 ± 0.04 g
Mortality ([1]; Enalapril 20 mg/kg in drinking water (100 mg/l), weeks 16-32, deaths/animals): 3/10
GFR (ml/min/100 g bw) ([1]; Enalapril 20 mg/kg in drinking water (100 mg/l), weeks 16-32, listed as E): 0.58 ± 0.06 ml/min/100 g bw
GFR (ml/min/100 g bw) ([1]; Enalapril 20 mg/kg in drinking water (100 mg/l), weeks 16-32, listed as Enalapril): 0.58±0.06 ml/min/100 g bw
cortical interstitial area / volume ([1]; Enalapril 20 mg/kg, weeks 16-32, DM vehicle 13.1±0.7%): 10.3±0.4%
mesangial matrix accumulation (in words) [1]: more mesangial matrix accumulation
mesangial matrix accumulation (in words) ([1]; listed as Enalapril): less effective than intermediate or high dose BMP-7 in eliminating accumulation of mesangial matrix
glomerulosclerosis (in words) ([1]; treatment weeks 16-32): decreased glomerular sclerosis; also recorded: markedly reduced
urine protein excretion / proteinuria / albuminuria (in words) ([1]; treatment weeks 16-32): reversed
GFR (in words) ([1]; treatment weeks 16-32, versus vehicle-treated diabetic and normal rats): normal or greater; also recorded: restored GFR to normal or slightly above normal
kidney weight / renal hypertrophy (in words) [1]: partially reversed diabetic renal hypertrophy
kidney weight / renal hypertrophy (in words) ([1]; listed as Enalapril): equal in partially reversing kidney hypertrophy; also recorded: equally effective
glomerular area / glomerular hypertrophy (in words) [1, 6]: significantly decreased; also recorded: equally effective
glomerulosclerosis (in words) [1, 6]: less effective in preventing glomerulosclerosis; also recorded: less so by Enalapril
interstitial volume (in words) [1, 6]: significantly decreased; also recorded: equally effective
systolic blood pressure (tail artery cuff) [1, 6]: controlled hypertension throughout the course of therapy; also recorded: reversed the hypertension of the diabetic rats; also recorded: normalized blood pressure during the entire 16 week course of therapy; also recorded: restored blood pressure to normal
proteinuria level (late-stage) [2]: 105 mg/day
